Here are results for four compounds from patent US20050027003A1, “Methods of therapeutic treatment using retinoids with reduced side effects” (Allergan, Inc., priority 2003, published 2005).

The conditions of data set [1]: in vivo; cited from earlier work.
For data set [2] the following is noted: in vivo; cited from earlier work. The source holds these as a separate data set.
Data set [3] concerns patients. Conditions: published data (N = 525); cited from earlier work.
In data set [4] the test system is patients. As to conditions: published data (N = 525); cited from earlier work. The source holds these as a separate data set.
For data set [5] the following is noted: oral; cited from earlier work.
A short description of data set [6]: Example 1: 6.3 mg oral tazarotene with high-fat meal vs 8-10 hour fast, pharmacokinetics. The format is in vivo, human. As to the method: (§1) The LC-MS/MS test for simultaneous detection of tazarotene and tazarotenic acid may be run as follows. One ml of plasma (EDTA-treated) is diluted with 1.0 ml of water. Diluted plasma is extracted using solid phase extraction (SPE) on a C18 cartridge. The eluate is evaporated, reconstituted in a water/methanol-based mobile phase, and injected onto a 4.6×50 mm, 3 μm pore size C-8 reverse phase high pressure liquid chromatography (HPLC) column (Agilent, Wilmington, Del.). Compounds are gradient-eluted at 1.2 mL/min and detected using an API 3000 triple quadrupole mass spectrometer with an Atmospheric Pressure Chemical Ionization (APCI) source (PE-Sciex, Concord, Ontario, Canada). Molecular reaction monitoring enhances the sensitivity and selectivity of this assay by collisionally dissociating the protonated molecules for the analyte and an internal standard thereby forming the product ions. The specific precursor-product ion pair monitored are m/z 352→324 for tazarotene, m/z 359→331 for the tazarotene internal standard, m/z 324→294 for tazarotenic acid, and m/z 331+298 for the tazarotenic acid internal standard. The lower limit of quantitation at assay range tested is 0.1 ng/mL, with a coefficient of variation and deviation from nominal concentration of <15%.

A further data set has as its system RARs. The data set is described as follows: Activation of and selectivity among the retinoic acid receptors. The format is cell-based. As to conditions: relative to all-trans-retinoic acid, the natural ligand. An excerpt: (§2) The selection of a retinoid component useful in accordance with the present invention can be accomplished using straightforward, conventional testing and/or assays, such as the transactivation assays set forth in Evans et al., U.S. Pat. Nos., 5,217,867; 5,262,300; 5,310,662; and 5,906,920, each of which is hereby incorporated in its entirety herein by reference, which are well known in the art. Such testing and/or assays can identify suitable useful retinoid components without undue experimentation.
(§3) Other well known and straightforward test methods and/or assays may be employed to determine the selectivity or specificity of an RAR active compound to RAR-alpha, RAR-beta and RAR-gamma. For example, using conventional and well known assays, for example, such as set forth in Klein et al. U.S. Pat. No. 5,776,699, the disclosure of which is incorporated in its entirety herein by reference, and/or the above-noted Evans et al. patents, the selectively or specificity of a compound to RAR-alpha, RAR-beta and RAR-gamma can be determined. Based on the results of such assays, one can determine whether or not a compound is useful in accordance with one or more aspects of the present invention.

For another data set, the target named is T1, RAR-α (Homo sapiens, UniProt P10276).
T1 sequence (P10276 1-462): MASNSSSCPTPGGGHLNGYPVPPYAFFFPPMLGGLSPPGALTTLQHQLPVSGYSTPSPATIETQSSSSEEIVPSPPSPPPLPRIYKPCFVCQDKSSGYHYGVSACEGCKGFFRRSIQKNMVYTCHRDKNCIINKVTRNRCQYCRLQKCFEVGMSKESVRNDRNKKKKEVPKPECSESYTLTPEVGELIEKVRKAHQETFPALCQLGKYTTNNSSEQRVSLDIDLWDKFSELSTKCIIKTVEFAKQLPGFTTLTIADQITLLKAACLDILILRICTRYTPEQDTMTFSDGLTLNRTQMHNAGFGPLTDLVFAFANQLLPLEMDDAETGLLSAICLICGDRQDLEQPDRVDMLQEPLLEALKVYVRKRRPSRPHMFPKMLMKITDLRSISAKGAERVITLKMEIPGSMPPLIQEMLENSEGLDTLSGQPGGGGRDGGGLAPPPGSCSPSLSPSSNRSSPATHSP
The data set is described as follows: RAR-α activity. The format is cell-based.
Excerpt: as §2, §3

Data set [7] can be described thus: Example 7: effect of body weight on plasma tazarotenic acid Cmax and AUC. The format is in vivo, human. As to conditions: 6 mg tazarotene daily. As to the method:
as §1, with “<15%. […]” for “<15%.”

The structures appear in SMILES notation. Read-outs that look alike come from different tables or passages of the source.

Consider `COc1cc(C)c(/C=C/C(C)=C/C=C/C(C)=C/C(=O)O)c(C)c1C` [acitretin], for which, in [1], the “bioavailability vs body weight” value is “increased with a reduced body weight”. Further, the “interaction with coadministered contraceptives” value in data set [2] is reported as “interferes with the contraceptive effect”. Also, in the data set with patients [3], the “Adverse event: Alopecia” value was 319 (60.8) number (%) of patients, the “Adverse event: Arthralgia” value is recorded as 102 (19.4) number (%) of patients, the “Adverse event: Atrophy of skin” value is given as 64 (12.2) number (%) of patients and the “Adverse event: Back pain” value is 41 (7.8) number (%) of patients. Also, in the data set with patients [3], the “Adverse event: Cheilitis” value is 429 (81.7) number (%) of patients, the “Adverse event: Dry Skin” value was 174 (33.1) number (%) of patients, the “Adverse event: Dry mouth/Oral dryness” value is 76 (14.5) number (%) of patients and the “Adverse event: Epistaxis” value is recorded as 61 (11.6) number (%) of patients. For the same compound, in the data set on patients [3], the “Adverse event: Erythematous rash/Erythema” value was 57 (10.9) number (%) of patients, the “Adverse event: Hyperesthesia” value was 66 (12.6) number (%) of patients, the “Adverse event: Nail Disorder” value is on record as 170 (32.4) number (%) of patients and the “Adverse event: Paresthesia” value is 56 (10.7) number (%) of patients. Besides, in the data set with patients [3], the “Adverse event: Paronychia/Nail disorder” value is recorded as 66 (12.6) number (%) of patients, the “Adverse event: Pruritus” value is 157 (29.9) number (%) of patients, the “Adverse event: Rhinitis” value was 153 (29.1) number (%) of patients and the “Adverse event: Rigors/Chills” value is on record as 67 (12.8) number (%) of patients. In addition, in the data set on patients [3], the “Adverse event: Skin peeling/Desquamation” value is recorded as 345 (65.7) number (%) of patients, the “Adverse event: Sticky skin/Skin disorder” value is reported as 129 (24.6) number (%) of patients and the “Adverse event: Xerophthalmia/Eye disorder” value is given as 112 (21.3) number (%) of patients.
Turning to `CCOC(=O)/C=C(C)/C=C/C=C(C)/C=C/c1c(C)cc(OC)c(C)c1C` [etretinate], the “bioavailability vs body weight” value in data set [1] is recorded as “increased with a reduced body weight”.
As to `CC1=C(/C=C/C(C)=C/C=C/C(C)=C\C(=O)O)C(C)(C)CCC1` [isotretinoin], in the data set on patients [4], the “Adverse event: Cheilitis” value was 472 (90.2) number (%) of patients, the “Adverse event: Conjunctivitis” value was 201 (38.4) number (%) of patients, the “Adverse event: Desquamation central face/Desquamation” value is on record as 187 (35.8) number (%) of patients and the “Adverse event: Dry Skin” value was 172 (32.9) number (%) of patients. Moreover, in the data set on patients [4], the “Adverse event: Dry nose” value was 136 (26.0) number (%) of patients, the “Adverse event: Epistaxis” value is listed as 121 (23.1) number (%) of patients, the “Adverse event: Fingertip peeling/Desquamation” value is 63 (12.0) number (%) of patients and the “Adverse event: Headache” value was 44 (8.4) number (%) of patients. In the data set on patients [4], the “Adverse event: Irritation of eyes” value is 85 (16.3) number (%) of patients, the “Adverse event: Joint pain/Arthralgia” value is listed as 60 (11.5) number (%) of patients, the “Adverse event: Pruritus” value is 127 (24.3) number (%) of patients and the “Adverse event: Rash-dermatitis/Rash” value is listed as 82 (15.7) number (%) of patients. Besides, in the data set on patients [4], the “Adverse event: Red Scaly face/Desquamation” value is on record as 54 (10.3) number (%) of patients and the “Adverse event: Skin fragility/Skin disorder” value is on record as 164 (31.4) number (%) of patients. Besides, the “bioavailability vs body weight” value in [1] was “increased with a reduced body weight”. Besides, the “interaction with coadministered contraceptives” value in data set [2] is “decreases blood concentrations of both ethinyl estradiol and norethindrone”. In data set [5], the “total dose to reach the same peak blood concentration in the fasted state as following a high fat meal” value is on record as “more than doubled”.
On to `CC1(C)CCSc2ccc(C#Cc3ccc(C(=O)O)cn3)cc21` [tazarotenic acid], for which the “average ratio of Cmax (test/reference)” value in data set [6] (Day 0, high-fat meal vs fasted) is 1.00. Besides, the “effect of high-fat meal on bioavailability or pharmacokinetics” value in data set [6] (single and multiple dose) is reported as “does not substantially affect”. Also, the “receptor specificity and selectivity” value in the data set with RARs was “specificity for the RARs and selectivity for RAR-β and RAR-γ”. In addition, the RAR-α activity result at RAR-α is listed as “minimal”. For the same compound, the “correlation of AUC with body weight” value in data set [7] (day 0) is recorded as “may be a correlation”. Besides, the “correlation between either Cmax or AUC and body weight” value in [7] (day 9) was “no correlation”.
